From ChEMBL document CHEMBL4359820, “Enrichment of novel quinazoline derivatives with high antitumor activity in mitochondria tracked by its self-fluorescence” (Eur J Med Chem, 2019) come the findings set out here.

A word on the inhibition: it is the change of the read-out against control, counted positive when it falls. As a reminder, the IC50 is the concentration that inhibits the measured activity by half. Read a low IC50 as inhibition by little substance.

Active and inactive are the calls of the source. The calls are words filed in the database; no cut-off is given here.

In data set [1] the target is Epidermal growth factor receptor (Homo sapiens) (UniProt P00533). The conditions noted are these: HEK293, at 50 nM.
Epidermal growth factor receptor (Homo sapiens), sequence (P00533 whole entry): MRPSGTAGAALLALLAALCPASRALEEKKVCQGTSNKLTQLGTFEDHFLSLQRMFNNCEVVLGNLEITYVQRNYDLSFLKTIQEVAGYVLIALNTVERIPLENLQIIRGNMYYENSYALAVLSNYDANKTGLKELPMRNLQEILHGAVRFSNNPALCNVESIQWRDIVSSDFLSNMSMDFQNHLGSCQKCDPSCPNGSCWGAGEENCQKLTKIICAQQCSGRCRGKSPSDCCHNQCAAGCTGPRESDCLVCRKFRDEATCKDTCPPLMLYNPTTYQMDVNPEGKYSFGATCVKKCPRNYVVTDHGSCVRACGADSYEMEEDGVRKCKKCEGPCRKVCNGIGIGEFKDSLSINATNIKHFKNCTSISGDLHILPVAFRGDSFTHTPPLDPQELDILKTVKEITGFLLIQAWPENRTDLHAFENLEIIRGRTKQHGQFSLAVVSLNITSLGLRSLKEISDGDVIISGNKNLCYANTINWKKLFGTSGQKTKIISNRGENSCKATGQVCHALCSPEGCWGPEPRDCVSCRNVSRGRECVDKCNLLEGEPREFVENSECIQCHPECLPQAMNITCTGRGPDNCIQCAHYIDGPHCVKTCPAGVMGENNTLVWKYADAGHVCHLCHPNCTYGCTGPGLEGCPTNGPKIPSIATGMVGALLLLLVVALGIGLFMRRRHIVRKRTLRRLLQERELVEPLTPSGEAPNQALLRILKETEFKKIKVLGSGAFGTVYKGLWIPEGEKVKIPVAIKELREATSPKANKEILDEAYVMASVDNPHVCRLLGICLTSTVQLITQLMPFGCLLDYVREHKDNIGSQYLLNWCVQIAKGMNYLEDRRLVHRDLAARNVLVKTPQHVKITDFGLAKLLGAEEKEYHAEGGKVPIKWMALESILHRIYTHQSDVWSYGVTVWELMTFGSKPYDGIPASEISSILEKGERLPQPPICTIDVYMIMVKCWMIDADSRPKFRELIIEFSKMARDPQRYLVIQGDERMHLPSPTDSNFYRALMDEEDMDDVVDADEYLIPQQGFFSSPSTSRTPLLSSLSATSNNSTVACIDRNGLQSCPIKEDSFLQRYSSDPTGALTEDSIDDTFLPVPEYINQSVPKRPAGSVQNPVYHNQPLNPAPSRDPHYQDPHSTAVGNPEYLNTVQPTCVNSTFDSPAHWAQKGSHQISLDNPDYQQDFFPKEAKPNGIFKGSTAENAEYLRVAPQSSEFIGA
Description: Inhibition of human recombinant His-tagged wild type EGFR expressed in HEK293 cells at 50 nM using poly[Glu:Tyr] (4:1) as substrate incubated for 60 mins by ELISA relative to control
The test system of data set [2] is NCI-H1975. In kind it is functional, cell-based. The following applies: Homo sapiens, NCI-H1975, 72 h.
The test system of data set [3] is SW480. In kind it is functional, cell-based. The conditions noted are these: Homo sapiens, SW480, 72 h.
The subject of data set [4] is A549. In kind it is functional, cell-based. The conditions noted are these: Homo sapiens, A549, 72 h.
Data set [5] relates to A-431. The experiment in a line: cells. The conditions noted are these: Homo sapiens, A-431, 72 h.
Description: Antiproliferative activity against human A431 cells incubated for 72 hrs by MTT assay
For data set [6], the target named is Epidermal growth factor receptor (Homo sapiens) (UniProt P00533). The experiment in a line: Inhibition of EGF-induced EGFR phosphorylation at Tyr-residue in human A549 cells at 0.4 to 10 uM preincubated for 2 hrs followed by EGF treatment and measured after 10 mins by Western blot analysis. In kind it is cell-based. (In general: In western blotting, separated proteins are transferred to a membrane and probed.)

The target is the same in data set [7]. Kind of data set: Inhibition of EGF-induced EGFR phosphorylation at Y1068 in human A549 cells at 0.4 to 10 uM preincubated for 2 hrs followed by EGF treatment and measured after 10 mins by Western blot analysis. Type of data set: cell-based.
The target is the same in data set [8]. Kind of data set: Inhibition of EGF-induced EGFR phosphorylation at Y992 in human A549 cells at 0.4 to 10 uM preincubated for 2 hrs followed by EGF treatment and measured after 10 mins by Western blot analysis. In kind it is cell-based.
The target is the same in data set [9]. Kind of data set: Inhibition of EGF-induced EGFR phosphorylation at Tyr-residue in human A431 cells at 0.2 to 5 uM preincubated for 2 hrs followed by EGF treatment and measured after 10 mins by Western blot analysis. Type of data set: cell-based.
The target is the same in data set [10]. Kind of data set: Inhibition of EGF-induced EGFR phosphorylation at Y1068 in human A431 cells at 0.2 to 5 uM preincubated for 2 hrs followed by EGF treatment and measured after 10 mins by Western blot analysis. In kind it is cell-based.
Data set [11] shares this target. Kind of data set: Inhibition of EGF-induced EGFR phosphorylation at Y992 in human A431 cells at 0.2 to 5 uM preincubated for 2 hrs followed by EGF treatment and measured after 10 mins by Western blot analysis. Type of data set: cell-based.
Data set [12] can be described thus: Drug uptake in human A549 cells at 5 uM incubated for 2 hrs by fluorescence microscopic method. In kind it is ADME, cell-based. The following applies: a549, 2 h.
A short description of data set [13]: Drug localization in mitochondria of human A549 cells at 5 uM incubated for 30 mins by Mitotracker red staining based confocal microscopic method. Type of data set: ADME. The conditions noted are these: a549, 0.5 h.
Data set [14] can be described thus: Drug localization in mitochondria of human A549 cells at 5 uM incubated for 30 mins by Mitotracker green staining based confocal microscopic method. In kind it is ADME. The conditions noted are these: a549, 0.5 h.
A short description of data set [15]: Drug localization in lysosome of human A549 cells at 5 uM incubated for 30 mins by Lysotracker red staining based confocal microscopic method. Type of data set: ADME, subcellular. The conditions noted are these: a549, 0.5 h.
Data set [16] is described as follows: Drug uptake in human A549 cells incubated for 2 hrs by FACS analysis. In kind it is ADME, cell-based. The conditions noted are these: a549, 2 h. (In general: A flow cytometer gives signals particle by particle.)
A short description of data set [17]: Drug uptake in human A549 cells at 1 uM incubated for 2 hrs by FACS analysis (reference value: 0%). Type of data set: ADME, cell-based. The conditions noted are these: a549, 2 h.
A short description of data set [18]: Drug uptake in human A549 cells at 5 uM incubated for 2 hrs by FACS analysis (reference value: 0%). The following applies: a549, 2 h. Type of data set: ADME, cell-based.
A short description of data set [19]: Drug uptake in human A549 cells at 25 uM incubated for 2 hrs by FACS analysis (reference value: 0%). Type of data set: ADME, cell-based. The conditions noted are these: a549, 2 h.
In data set [20] the test system is A549. The experiment in a line: Induction of apoptosis in human A549 cells assessed as viable cells at 20 uM incubated for 48 hrs by annexin V -FITC and PI staining based flow cytometric analysis (reference value: 94.56%). In kind it is functional. The conditions noted are these: A549, 48 h, read-out: Activity.
Data set [21] relates to A549. Kind of data set: Induction of apoptosis in human A549 cells assessed as early apoptotic cells at 20 uM incubated for 48 hrs by annexin V -FITC and PI staining based flow cytometric analysis (reference value: 2.93%). Type of data set: functional.
Data set [22] has as its system A549. Kind of data set: Induction of apoptosis in human A549 cells assessed as late apoptotic cells at 20 uM incubated for 48 hrs by annexin V -FITC and PI staining based flow cytometric analysis (reference value: 2.24%). Type of data set: functional.
Data set [23] has as its system A549. Kind of data set: Induction of apoptosis in human A549 cells assessed as necrotic cells at 20 uM incubated for 48 hrs by annexin V -FITC and PI staining based flow cytometric analysis (reference value: 0.27%). In kind it is functional.
Data set [24] concerns A549. The experiment in a line: Induction of cell cycle arrest in human A549 cells assessed as accumulation at G0/G1 phase at 20 uM incubated for 48 hrs by PI staining based flow cytometric analysis (reference value: 51.73%). Type of data set: functional.
The test system of data set [25] is A549. The experiment in a line: Induction of cell cycle arrest in human A549 cells assessed as accumulation at S phase at 20 uM incubated for 48 hrs by PI staining based flow cytometric analysis (reference value: 33.67%). In kind it is functional.
The test system of data set [26] is A549. The experiment in a line: Induction of cell cycle arrest in human A549 cells assessed as accumulation at G2/M phase at 20 uM incubated for 48 hrs by PI staining based flow cytometric analysis (reference value: 14.36%). In kind it is functional.
Data set [27] deals with HCC827. Type of data set: functional, cell-based. The following applies: Homo sapiens, HCC827, 72 h.
In data set [28] the test system is A549. The experiment in a line: Inhibition of cell migration in CM-dil-labelled human A549 cells xenografted in 48 hrs post-fertilization zebrafish embryos at 15 uM incubated for 48 hrs by confocal microscopic method. Type of data set: functional, cell-based. Background: A xenograft is tissue or cells of one species grown in another, often human tumour cells in immunodeficient mice.

The subject of data set [29] is A549. Kind of data set: Induction of cell cycle arrest in human A549 cells assessed as accumulation at G0/G1 phase at 15 uM incubated for 48 hrs by PI staining based flow cytometric analysis (reference value: 51.73%). Type of data set: functional.
Data set [30] deals with A549. The experiment in a line: Induction of cell cycle arrest in human A549 cells assessed as accumulation at S phase at 15 uM incubated for 48 hrs by PI staining based flow cytometric analysis (reference value: 33.67%). Type of data set: functional.
In data set [31] the test system is A549. The experiment in a line: Induction of cell cycle arrest in human A549 cells assessed as accumulation at G2/M phase at 15 uM incubated for 48 hrs by PI staining based flow cytometric analysis (reference value: 14.36%). In kind it is functional.

In the case of `CCN(CC)CCN1CCN(c2cc3ncnc(Nc4ccc(F)c(Cl)c4)c3cc2F)CC1`, the inhibition in data set [1] was less than 20%.
`C#Cc1cccc(Nc2ncnc3cc(N4CCNCC4)c(F)cc23)c1` returned an inhibition in data set [1] of less than 20%.
In [1], `C/C=C/c1ccc(Nc2ncnc3cc(N4CCNCC4)c(F)cc23)cc1` returned an inhibition of less than 20%.
Regarding `COCCN1CCN(c2cc3ncnc(Nc4ccc(F)c(Cl)c4)c3cc2F)CC1`, the IC50 in data set [2] turned out to be 49.8 µM; in data set [3], 16.4 µM; in data set [4], 14.4 µM; in data set [5], 12.6 µM.
Consider `C/C=C/c1ccc(Nc2ncnc3cc(N4CCN(CCOC)CC4)c(F)cc23)cc1`, for which the IC50 in data set [2] is greater than 100 µM; in data set [3], greater than 100 µM; in data set [4], greater than 100 µM; in [5] it was 49.2 µM.
Regarding `Fc1cccc(COc2ccc(Nc3ncnc4cc(N5CCNCC5)c(F)cc34)cc2Cl)c1`, the inhibition entry in data set [6], in data set [7], in [8], in data set [9], in data set [10] and in data set [11] was “inactive” each time. Moreover, the Drug uptake entry in data set [12] is recorded as “Active”; in [13], “Active”; in [14], “Active”; in [15], “Active”; in [16], “Dose-dependent effect”; in data set [17], 74.03%. Moreover, the Drug uptake in data set [18] worked out at 99.95%; in data set [19], 100%. The molecule also gave an inhibition in data set [1] of less than 20%.
With `Fc1cccc(COc2ccc(Nc3ncnc4cc(N5CCOCC5)c(F)cc34)cc2Cl)c1`, the IC50 in [2] was 52.6 µM; in data set [3], 57.5 µM; in data set [4] it was 71.8 µM; in data set [5] it was 10.1 µM.
Take `C/C=C/c1ccc(Nc2ncnc3cc(N4CCOCC4)c(F)cc23)cc1`: the IC50 in data set [2] is greater than 100 µM; in [3] it was greater than 100 µM; in data set [4], greater than 100 µM; in data set [5] it was 64 µM.
Molecule `Fc1ccc(Nc2ncnc3cc(N4CCNCC4)c(F)cc23)cc1Cl` came in with an inhibition in data set [1] of less than 20%.
Consider `COc1cc2ncnc(Nc3ccc(F)c(Cl)c3)c2cc1OCCCN1CCOCC1` [GEFITINIB], for which the viability at 20 µM in data set [20] is 83.3%. Moreover, the Activity in [21] is 7.93%; in data set [22], 7.86%; in data set [23], 0.95%; in data set [24], 76.94%; in [25], 16.98%; in data set [26], 5.95%.
For the molecule `C#Cc1cccc(Nc2ncnc3cc(N4CCOCC4)c(F)cc23)c1`, the IC50 in [2], in data set [3], in data set [4] and in [5] was greater than 100 µM in each case.
On to `C#Cc1cccc(Nc2ncnc3cc(N4CCN(CCOC)CC4)c(F)cc23)c1`, for which the IC50 is 68.1 µM in [2], 19 µM in data set [3], 19.2 µM in data set [4] and 12.8 µM in [5].
As to `Fc1ccc(Nc2ncnc3cc(N4CCOCC4)c(F)cc23)cc1Cl`, the IC50 is greater than 100 µM in data set [2], greater than 100 µM in data set [3], greater than 100 µM in data set [4] and 85.6 µM in data set [5].
On to `COCCN1CCN(c2cc3ncnc(Nc4ccc(OCc5cccc(F)c5)c(Cl)c4)c3cc2F)CC1`, for which the half-inhibitory concentration (IC50) in [2], in [3], in data set [4] and in data set [5] was greater than 100 µM throughout.
In turn, `C#Cc1cccc(Nc2ncnc3cc(N4CCN(CCN(CC)CC)CC4)c(F)cc23)c1` had an inhibition in [1] of less than 20%.
Molecule `C/C=C/c1ccc(Nc2ncnc3cc(N4CCN(CCN(CC)CC)CC4)c(F)cc23)cc1` showed an inhibition in data set [1] of less than 20%.
Take `CS(=O)(=O)CCNCc1ccc(-c2ccc3ncnc(Nc4ccc(OCc5cccc(F)c5)c(Cl)c4)c3c2)o1` [LAPATINIB]: the results for the IC50 in data set [27] and in data set [4] were 0.6 µM and 14.9 µM, respectively. For the same molecule, the inhibition entry in data set [28] is “Active”. Further, the Activity in data set [29] is 69.72%; in data set [30] it was 22.35%; in data set [31], 7.66%.
Turning to `CCN(CC)CCN1CCN(c2cc3ncnc(Nc4ccc(OCc5cccc(F)c5)c(Cl)c4)c3cc2F)CC1`, in data set [1], the inhibition is greater than 20%.
